For series [1] the following is noted: 298.15 K; 101.33 kPa; Liquid; Vibrating tube method.
The nature of series [2]: refractive index (Na D-line) (dimensionless). The conditions noted are these: 298.15 K; 101.33 kPa; Liquid; Standard Abbe refractometry.

± gives the expanded uncertainty stated by the source.

As usually defined, the mass density is mass per unit of volume. What is called refractive index is a measure of how strongly the sample bends light. `CCCCCCCCn1cc[n+](C)c1.O=S(=O)([N-]S(=O)(=O)C(F)(F)F)C(F)(F)F`: the mass density in series [1] was determined as 1320.76 ± 12 kg/m3. Moreover, the refractive index in series [2] is given as 1.43331 ± 0.0012.
As for `CCCCCCCC[n+]1ccn(C)c1.F[B-](F)(F)F` [1-methyl-3-octylimidazolium tetrafluoroborate], in series [1], the mass density was 1104.42 ± 8.5 kg/m3. Further, the refractive index in series [2] was determined as 1.43329 ± 0.0012.
In the case of `CC1CCCCC1` [methylcyclohexane], in series [1], the mass density was 764.97 ± 0.31 kg/m3. In addition, in series [2], the refractive index is reported as 1.42048 ± 0.00075.
With `c1ccsc1` [thiophene], the mass density in series [1] was found to be 1058.5 ± 0.15 kg/m3. Also, the refractive index in series [2] was found to be 1.52581 ± 0.00073.
